Data as given in patent EP1591123A1, “USES OF NARINGENIN, NARINGIN AND SALTS THEREOF AS EXPECTORANTS IN THE TREATMENT OF COUGH, AND COMPOSITIONS THEREOF” (Su, Wei-wei, priority 2003, dated 2004).
Where a name gives a salt, the structure may show the parent alone.

Tested on: NIH mice
Assay: Antitussive test of Naringin, spraying with concentrated ammonia liquor (Example 28)
Type: in vivo
Conditions: for R Value: EDT50 of the treatment / EDT50 of the control x 100%; for EDT50: mice, intra-gastrointestinal, ammonia spray 1 hour after dosing
Excerpt: 1.Animals: As the stock animals, totally 130 NIH mice, male, each weighed 18.2~21.7g within ordinary standard. Weigh and number each mice accurately first, then pick out the 120 healthy ones who weighed in range from 18.5~21.0g. Ranked in weigh, they were divided into 8 groups in random with each 15. Set up reference groups of negative and positive, and sample groups of high-dose, mid-dose, low-dose Naringin and sodium Naringinate.
• 1) Blank control group: physiological saline, 0.9% NaCl; • 2) Positive control group: 30 mg dextromethorphan hydrobromide was weighed into a 20ml volumetric flask, and physiological saline was accurately added to the volume to obtain the solution for positive control at concentration of 5mg/ml° • 3) Group of low-dose sample Naringin: Proper amount of Naringin was weighed into a suitable volumetric flask, and physiological saline was added to the volume to obtain the solution at concentration of 0.5mg/ml. • 4) Group of mid-dose sample Naringin: Proper amount of Naringin was weighed into a suitable volumetric flask, and physiological saline was added to the volume to obtain the solution at concentration of 1.5mg/ml. • 5) Group of high-dose sample Naringin: Proper amount of Naringin was weighed into a suitable volumetric flask, and physiological saline was added to the volume to obtain the solution at concentration of 4.5mg/ml. • 6) Group of low-dose sample sodium Naringinate: Proper amount of sodium Naringin was weighed into a suitable volumetric flask, and physiological saline was added to the volume to obtain the solution at concentration of 0.5mg/ml. • 7) Group of mid-dose sample sodium Naringinate: Proper amount of sodium Naringin was weighed into a suitable volumetric flask, and physiological saline was added to the volume to obtain the solution at concentration of 1.5mg/ml. • 8) Group of high-dose sample sodium Naringinate: Proper amount of sodium Naringin was weighed into a suitable volumetric flask, and physiological saline was added to the volume to obtain the solution at concentration of4.5mg/ml.
One hour after intra-gastrointestinal administering for the mice, spray with concentrated ammonia liquor for certain intervals. Immediately the spraying was over, put away the mice outside and observe the tussive action. Mark down the times for which they coughed within 1 minute. Only when they coughed, which was characteristic of compression of abdomen or chest with their mouths open, and making coughing noise, for more than 3 times within a minute, tussive action could be admitted.
Calculate the median effective dose(EDT50) with sequential trials. Work out the amount of R with the formula below. If R is greater than 130%, it means the drug will be effective on antitussive action. If R is greater than 150%, it means the drug will be remarkably effective on antitussive action. The formula is shown as below: R =(EDT50 of the treatmnet)/(EDT50 of the control)× 100% [formula] EDT50=log-1c/n(n for amount of animals, c for summation of rx, r for amount of animals in each group, x for logarithm of the dose (time for spraying) )

[1] = 0.2 ml/20g of 0.5 mg/ml, listed as sodium naringinate
[2] = 0.2 ml/20g of 1.5 mg/ml, listed as sodium naringinate
[3] = 0.2 ml/20g of 4.5 mg/ml, listed as sodium naringinate

Structure (SMILES) | Effect of relieving cough (0.2 ml/20g of 0.5 mg/ml) | Effect of relieving cough (0.2 ml/20g of 1.5 mg/ml) | Effect of relieving cough (0.2 ml/20g of 4.5 mg/ml) | R Value (0.2 ml/20g of 0.5 mg/ml) | R Value (0.2 ml/20g of 1.5 mg/ml) | R Value (0.2 ml/20g of 4.5 mg/ml) | resistance time against cough (compared with dextromethorphan hydrobromide) | EDT50 (0.2 ml/20g of 0.5 mg/ml) | EDT50 (0.2 ml/20g of 1.5 mg/ml) | EDT50 (0.2 ml/20g of 4.5 mg/ml) | R Value [1] | R Value [2] | R Value [3] | EDT50 [1] | EDT50 [2] | EDT50 [3]
C[C@@H]1O[C@@H](O[C@H]2[C@H](Oc3cc(O)c4c(c3)O[C@H](c3ccc(O)cc3)CC4=O)O[C@H](CO)[C@@H](O)[C@@H]2O)[C@H](O)[C@H](O)[C@H]1O [Naringin, 4', 5', 7-trihydroxyflavanone-7-rhamnoneglucoside] | effective (If R is greater than 130%, it means the drug will be effective on antitussive action) | remarkably effective (If R is greater than 150%, it means the drug will be remarkably effective on antitussive action) | remarkably effective (If R is greater than 150%, it means the drug will be remarkably effective on antitussive action) | 139.21% | 151.36% | 161.72% | remarkably longer | 56.41 s | 61.33 s | 65.53 s |  |  |  |  |  | 
C[C@@H]1O[C@@H](O[C@H]2[C@H](Oc3cc(O)c4c(c3)O[C@H](c3ccc(O)cc3)CC4=O)O[C@H](CO)[C@@H](O)[C@@H]2O)[C@H](O)[C@H](O)[C@H]1O [sodium salt of Naringin] | effective (If R is greater than 130%, it means the drug will be effective on antitussive action) | remarkably effective (If R is greater than 150%, it means the drug will be remarkably effective on antitussive action) | remarkably effective (If R is greater than 150%, it means the drug will be remarkably effective on antitussive action) |  |  |  |  |  |  |  | 142.35% | 155.84% | 163.94% | 57.68 s | 63.15 s | 66.43 s
